Source: US20240116923A1, “USE OF INDOLE, 6- AND 7-AZAINDOLE DERIVATIVES AS INHIBITORS OF FERROPTOSIS REGULATED CELL DEATH” (Seabelife, priority 2021, published 2024)
pEC50: −log10 of the molar value. Like-named read-outs stand apart in the source and are kept apart here.

Assays:
Type in all cases: cell-based
[1] = test system: mouse hippocampal neuronal cell line HT22; experiment: Neurotoxicity and excitotoxicity assay, HT22 cells + glutamate, erastin or RSL3, MTS cell viability; conditions: Mus musculus
Description: (§1) The excitotoxicity model used was the mouse hippocampal neuronal HT22 cells treated with glutamate [Dixon et al., Cell, 2012, 149(5), 1060-1072]. Ferroptosis and oxidative stress are both associated in this glutamate-induced cell death [Chu et al., Neural Regen. Res., 2020, 15(3), 528-536]. Phenotypic screening was also carried out with additional cell death inducers, erastin and RSL3 ((1S,3R)-Ras-selective lethal), in HT22 and SH-SY5Y (human neuroblastoma cells). Erastin and RSL3 are well described molecules, used as chemical tools for the study of ferroptosis regulation and neuronal pathologies [Lewerenz et al., Front. Neurosci., 2018, 12: 214; Reichert et al., Int. J. Mol. Sci., 2020, 21, 8765].
(§2) Mouse hippocampal neuronal cell line (HT22, ATCC) and human neuroblastoma cell line (SH-SY5Y, ATCC) were grown in Dulbecco's Modified Eagle Medium (DMEM, Gibco) supplemented with 10% fetal bovine serum (FBS, Gibco) at 37° C. under 5% CO2 atmosphere. Neurotoxicity was induced by erastin or RSL3 and excitotoxicity was induced by glutamate. Cells were seeded in 96-well plates at 5,000 and 10,000 cells/well for HT22 and SH-SY5Y cell lines, respectively. Cells were treated with 0.5-1 μM Erastin (HT22 cells) or 10 μM Erastin (SH-SY5Y cells) or 5-10 mM glutamate (HT22 cells) or 0.5 μM RSL3 (HT22 cells) or 5 μM RSL3 (SH-SY5Y cells) for 24 h in presence of increasing concentrations of inhibitors. Cells treated with DMSO only were used as controls. Cell viability was assessed by MTS assay (CellTiter 96 AQueous One Solution Cell Proliferation assay, Promega).
(§3) In FIGS. 1, 2A and 2B, an inhibitor was added to HT22 (FIG. 1: compound 6) or SH-SY5Y (FIG. 2A: compound 6; FIG. 2B: compound 25) cells in the presence or not of cell death inducers (erastin, glutamate or RSL3). […] EC50 values for compounds 1-28 were calculated from dose-response curves using Graphpad Prism software.

Rat dopaminergic neurons = experiment: Protective effect after 6-OHDA injury on rat primary dopaminergic neurons survival (TH staining); conditions: for cellular death of dopaminergic neurons after 6-OHDA injury: 1 h before and during 2 days of 6-OHDA 20 μM (alone 48%), p<0.001; for rescue of dopaminergic neurons from cell death after 6-OHDA injury: at every concentration tested of 10 μM, 1 μM and 0.1 μM
Description: As explained in Ding et al., J Neurochem., 2004, (89), administration of 6-Hydroxydopamine (6-OHDA), a neurotoxin, has been widely used to cause the selective degeneration of dopamine (DA) neurons in in vitro and in vivo models. These models are used as Parkinson's disease models, which is characterized by the progressive loss of DA neurons of the substantia nigra.
Rat dopaminergic neurons were cultured as described by Schinelli et al., J Neurochem., 1988, 50(6). The cells were seeded at a density of 40 000 cells/well in 96 well-plates (precoated with poly-D-lysine; Greiner, Ref: 655940, Batch: E20093UL) and were cultured at 37° C. in a humidified air (95%)/CO2 (5%) atmosphere. Half of the medium was changed every 2 days with fresh medium. In these conditions, after 5 days of culture, astrocytes are present in the culture and release growth factor allowing neurons differentiation. In this condition, 2 to 5% of neurons are dopaminergic neurons.
6-OHDA (Sigma, Ref: 162957, Batch MKCK5243) was reconstituted in define culture medium at 40 μM (stock solution). The control medium was prepared in the same conditions. After 7 days of culture, primary mesencephalic neurons were pre-treated for 1 hour with test compounds or reference compound (BDNF, 50 ng/mL) and then intoxicated with 6-OHDA at a final concentration of 20 μM for 2 days incubation in order to induce a neuronal cell death of about 50%+/−5%.
After 2 days of intoxication in presence or absence of test compounds, cells were fixed by a solution of 4% paraformaldehyde (Sigma, ref 6148, Batch: SZBE2390V) for 20 min at room temperature, the control conditions were fixed as well following the same procedure. The cells were then permeabilized and nonspecific sites were blocked with a solution of phosphate buffered saline (PBS; PanBiotech; ref: P04-36500, Batch: 7701020) containing 0.1% of saponin (Sigma; ref: S7900, Batch: BCBL8667V) and 1% FCS for 15 min at room temperature. Cells were incubated with a mouse monoclonal anti-Tyrosine Hydroxylase (TH, 1/10 000, Sigma; ref: T1299, Batch: 014M4835) antibody in a solution of PBS overnight at 4° C. Antibody against TH stained dopaminergic neurons. […] Nuclei of cells were labelled by a fluorescent marker (Hoechst, Sigma; ref: B1155, Batch: 046M4048V) in the same solution. For each condition, 20 pictures per well were taken using InCell Analyzer™ 2200 (GE Healthcare) with 20× magnification. Images of each culture well were taken in same condition. Analysis of cell bodies of TH positive neurons was performed using Developer software (GE healthcare). A total of 6 data per experimental condition were provided.

[2] = test system: human neuroblastoma cell line SH-SY5Y; experiment: Neurotoxicity assay, SH-SY5Y cells + erastin or RSL3, MTS cell viability; conditions: Homo sapiens
Description: as §1, §2, §3

[3] = 10 μM (first value of 'respectively')

Row | SMILES | pEC50 ([1]; HT-22, HT22 cells, 0.5 μM RSL3, 24 h, MTS, read-out: EC50 HT22 RSL3) | pEC50 ([1]; HT-22, HT22 cells, 0.5-1 μM Erastin, 24 h, MTS, read-out: EC50 HT22 Erastin) | pEC50 ([1]; HT-22, HT22 cells, 5-10 mM glutamate, 24 h, MTS, read-out: EC50 HT22 Glutamate) | cellular death of dopaminergic neurons after 6-OHDA injury (Rat dopaminergic neurons; 1 μM (second value of 'respectively')) | cellular death of dopaminergic neurons after 6-OHDA injury (Rat dopaminergic neurons; [3]) | rescue of dopaminergic neurons from cell death after 6-OHDA injury (Rat dopaminergic neurons) | pEC50 ([2]; SH-SY5Y cells, 5 μM RSL3, 24 h, MTS, read-out: EC50 SH-SY5Y RSL3) | pEC50 ([2]; SH-SY5Y cells, 10 μM Erastin, 24 h, MTS, read-out: EC50 SH-SY5Y Erastin) | pEC50 ([1]; HT-22, 24 h, read-out: EC50 HT22 Erastin) | pEC50 ([1]; HT-22, 24 h, read-out: EC50 HT22 Glutamate) | pEC50 ([1]; HT-22, 24 h, read-out: EC50 HT22 RSL3) | pEC50 ([2]; SH-SY5Y, 24 h, read-out: EC50 SH-SY5Y Erastin)
1 | Oc1ccc(-c2cc3cccnc3[nH]2)cc1 [Compound 7, 4-(1H-pyrrolo[2,3-b]pyridin-2-yl)phenol] | 4.84 | < 4.60 | < 4.60 | 24% | 16% | partially and significantly rescue | 5.87 | 4.91 | – | – | – | –
2 | Oc1ccc(-c2cc3ccccc3[nH]2)cc1 [Compound 1, 4-(1H-indol-2-yl)phenol] | – | – | – | – | 25% | partially and significantly rescue | – | – | 5.54 | 5.59 | 5.49 | 5.97
